Reference: patent publication US12161715B2, “EGFR targeted therapy” (priority 2011, dated 2024)

Experiment: Case 3: conventional drugs approved for neuropathic pain
Format: in vivo, human
Conditions: failed back surgery syndrome; pregabalin follow-up 19 weeks

With `NCC1(CC(=O)O)CCCCC1` [gabapentin] the “NP response to conventional drug, Case 3” value was “unsuccessfully treated”.
With `CC(C)C[C@H](CN)CC(=O)O` [pregabalin] the “NP response to conventional drug, Case 3” value was “responded”.
